Measured values as given in patent publication US7169786B2, “Isoxazoline derivatives as anti-depressants” (priority 2001, dated 2007).

Tests used:
h5-HT transporter = molecular target: T1, h5-HT transporter (Homo sapiens, UniProt P31645); test: Radioligand binding experiment for 5-HT transporter ([3H]paroxetine, human platelet membranes); conditions: human platelet membranes, [3H]paroxetine 0.5 nM; for IC50: read-out: 5HTT pIC50 (converted)
T1 construct: Human platelet membranes (Oceanix Biosciences Corporation, Hanover, Md., USA) were thawed; tissue Oceanix Biosciences Corporation, Hanover, Md., USA; host or cells: human platelet membranes
T1 sequence (P31645 whole entry): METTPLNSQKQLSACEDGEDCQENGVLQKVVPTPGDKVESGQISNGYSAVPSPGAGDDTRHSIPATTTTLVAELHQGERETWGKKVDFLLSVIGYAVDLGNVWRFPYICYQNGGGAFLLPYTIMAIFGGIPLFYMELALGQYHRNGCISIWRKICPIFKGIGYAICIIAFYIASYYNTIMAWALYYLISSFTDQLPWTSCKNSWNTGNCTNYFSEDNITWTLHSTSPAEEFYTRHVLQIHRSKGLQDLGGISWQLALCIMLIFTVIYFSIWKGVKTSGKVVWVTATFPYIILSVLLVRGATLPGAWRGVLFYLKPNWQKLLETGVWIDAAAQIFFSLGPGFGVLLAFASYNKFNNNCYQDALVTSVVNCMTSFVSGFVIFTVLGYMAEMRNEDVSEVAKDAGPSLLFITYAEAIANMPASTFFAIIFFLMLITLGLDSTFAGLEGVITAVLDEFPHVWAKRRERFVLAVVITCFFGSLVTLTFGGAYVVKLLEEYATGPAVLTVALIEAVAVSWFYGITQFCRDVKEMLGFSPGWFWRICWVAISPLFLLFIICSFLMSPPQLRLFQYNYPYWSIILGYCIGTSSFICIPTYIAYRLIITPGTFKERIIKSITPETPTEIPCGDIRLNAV
Method: (§1) The interaction of the compounds of Formula (I) with hα2-receptors and h5-HT-transporters was assessed in in vitro radioligand binding experiments. In general, a low concentration of a radioligand with a high binding affinity for a particular receptor or transporter is incubated with a sample of a tissue preparation enriched in a particular receptor or transporter or with a preparation of cells expressing cloned human receptors in a buffered medium. During the incubation, the radioligand binds to the receptor or transporter. When equilibrium of binding is reached, the receptor bound radioactivity is separated from the non-bound radioactivity, and the receptor- or transporter-bound activity is counted. The interaction of the test compounds with the receptor is assessed in competition binding experiments. Various concentrations of the test compound are added to the incubation mixture containing the receptor- or transporter preparation and the radioligand. The test compound in proportion to its binding affinity and its concentration inhibits binding of the radioligand. The radioligand used for hα2A, hα2B and hα2C receptor binding was [^3H]-raulwolscine and for the h5-HT transporter was [^3H]paroxetine.
Human platelet membranes (Oceanix Biosciences Corporation, Hanover, Md., USA) were thawed, diluted in buffer (Tris-HCl 50 mM, 120 mM NaCl and 5 mM KCl) and quickly (max 3 s) homogenised with an Ultraturrax homogenizer. […] Filters were rinsed extensively with ice-cold buffer and radioactivity on the filters was counted in a Topcount liquid scintillation counter (Packard, Meriden, Conn.). Data were expressed as cpm. Imipramine (at 1 μM final concentration) was used to determine the non-specific binding.
(§2) Data from assays in the presence of compound were calculated as a percentage of total binding measured in the absence of test compound. Inhibition curves, plotting percent of total binding versus the log value of the concentration of the test compound, were automatically generated, and sigmoidal inhibition curves were fitted using non-linear regression. The pIC50 values of test compounds were derived from individual curves.

hα2A receptor = molecular target: T2, hα2A receptor (Homo sapiens, UniProt P08913); test: Radioligand binding experiment for hα2A receptor ([3H]-raulwolscine); conditions: membranes of CHO cells expressing human α2A receptor, [3H]raulwolscine 1 nM; for IC50: read-out: hα2A pIC50 (converted)
T2 construct: expressed in transfected cells
T2 sequence (P08913 1-465): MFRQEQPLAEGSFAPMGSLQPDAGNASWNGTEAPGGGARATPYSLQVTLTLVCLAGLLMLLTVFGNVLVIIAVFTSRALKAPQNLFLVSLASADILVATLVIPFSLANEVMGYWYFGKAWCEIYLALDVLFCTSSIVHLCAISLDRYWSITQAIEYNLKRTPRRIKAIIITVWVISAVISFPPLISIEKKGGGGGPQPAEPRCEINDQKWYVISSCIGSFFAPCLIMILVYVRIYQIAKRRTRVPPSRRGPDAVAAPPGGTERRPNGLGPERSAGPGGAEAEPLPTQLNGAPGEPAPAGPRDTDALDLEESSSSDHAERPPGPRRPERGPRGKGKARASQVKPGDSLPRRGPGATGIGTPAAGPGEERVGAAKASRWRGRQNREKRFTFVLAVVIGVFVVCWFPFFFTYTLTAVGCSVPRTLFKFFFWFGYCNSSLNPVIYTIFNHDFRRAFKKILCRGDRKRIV
Method: as §1
(§3) CHO cells, stabile transfected with human adrenergic-α2A-, -α2B or α2C receptor cDNA, were cultured in Dulbecco's Modified Eagle's Medium (DMEM)/Nutrient mixture Ham's F12 (ratio 1:1)(Gibco, Gent-Belgium) supplemented with 10% heat inactivated fetal calf serum (Life Technologies, Merelbeke-Belgium) and antibiotics (100 IU/ml penicillin G, 100 μg/ml streptomycin sulphate, 110 μg/ml pyruvic acid and 100 μg/ml L-glutamine). One day before collection, cells were induced with 5 mM sodiumbutyrate. Upon 80–90% of confluence, cells were scraped in phosphate buffered saline without Ca^2+ and Mg^2+ and collected by centrifugation at 1500×g for 10 min. The cells were homogenised in Tris-HCl 50 mM using an Ultraturrax homogenizer and centrifuged for 10 min at 23,500×g. The pellet was washed once by resuspension and rehomogenization and the final pellet was resuspended in Tris-HCl, divided in 1 ml aliquots and stored at −70° C.
(§4) Membranes were thawed and re-homogenized in incubation buffer (glycylglycine 25 mM, pH 8.0). […] Filters were rinsed extensively with ice-cold rinsing buffer (Tris-HCl 50 mM pH 7.4). Filter-bound radioactivity was determined by scintillation counting in a Topcount (Packard, Meriden, Conn.) and results were expressed as counts per minute (cpm). Non-specific binding was determined in the presence of 1 μM oxymetazoline for hα2A- and hα2B receptors and 1 μM spiroxatrine for hα2C receptors.
as §2

hα2C receptor = molecular target: T3, hα2C receptor (Homo sapiens, UniProt P18825); test: Radioligand binding experiment for hα2C receptor ([3H]-raulwolscine); conditions: membranes of CHO cells expressing human α2C receptor, [3H]raulwolscine 1 nM; for IC50: read-out: hα2C pIC50 (converted)
T3 construct: expressed in transfected cells
T3 sequence (P18825 1-462): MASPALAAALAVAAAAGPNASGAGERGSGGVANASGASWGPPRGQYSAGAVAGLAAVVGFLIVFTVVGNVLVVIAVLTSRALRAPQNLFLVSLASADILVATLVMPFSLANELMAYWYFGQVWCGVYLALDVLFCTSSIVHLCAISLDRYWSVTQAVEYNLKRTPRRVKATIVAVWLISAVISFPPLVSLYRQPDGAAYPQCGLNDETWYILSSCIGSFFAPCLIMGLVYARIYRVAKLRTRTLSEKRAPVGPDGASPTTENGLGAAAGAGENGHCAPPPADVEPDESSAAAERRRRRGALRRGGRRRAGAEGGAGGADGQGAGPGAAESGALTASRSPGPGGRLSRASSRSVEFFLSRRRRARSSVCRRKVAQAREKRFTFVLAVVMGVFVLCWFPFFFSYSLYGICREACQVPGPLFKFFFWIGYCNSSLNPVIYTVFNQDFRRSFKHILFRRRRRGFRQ
Method: as §1, §3, §4, §2

hα2B receptor = molecular target: T4, hα2B receptor (Homo sapiens, UniProt P18089); test: Radioligand binding experiment for hα2B receptor ([3H]-raulwolscine); conditions: membranes of CHO cells expressing human α2B receptor; [3H]raulwolscine 1 nM; read-out: hα2B pIC50 (converted)
T4 construct: expressed in transfected cells
T4 sequence (P18089 1-450): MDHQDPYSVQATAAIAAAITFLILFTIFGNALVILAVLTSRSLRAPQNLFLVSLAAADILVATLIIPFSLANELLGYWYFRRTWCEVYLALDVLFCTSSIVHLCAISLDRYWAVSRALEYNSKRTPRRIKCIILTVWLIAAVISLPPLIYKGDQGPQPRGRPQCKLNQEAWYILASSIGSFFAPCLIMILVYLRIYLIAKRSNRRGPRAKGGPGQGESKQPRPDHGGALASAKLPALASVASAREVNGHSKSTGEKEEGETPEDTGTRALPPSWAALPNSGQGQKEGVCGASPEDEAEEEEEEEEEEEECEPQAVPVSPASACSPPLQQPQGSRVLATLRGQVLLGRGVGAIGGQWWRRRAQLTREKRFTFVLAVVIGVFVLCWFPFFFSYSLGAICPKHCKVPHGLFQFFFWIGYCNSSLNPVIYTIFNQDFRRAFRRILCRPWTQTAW
Method: as §1, §3, §4, §2

Row | IC50 (h5-HT transporter) [nM] | IC50 (hα2A receptor) [nM] | IC50 (hα2C receptor) [nM] | IC50 (hα2B receptor) [nM] | Structure (SMILES) | 5HTT pIC50 (h5-HT transporter) | hα2A pIC50 (hα2A receptor) | hα2C pIC50 (hα2C receptor)
1 | 4.17 | 12.6 | 3.09 | – | COc1cc2c(cc1OC)C1=NOC(CN3CCN(C/C=C(\C)c4ccc(F)cc4)CC3)C1CO2 (single isomer, unassigned) [Compound 361] | – | – | –
2 | – | – | – | – | C=CCOc1cc2c(cc1OC)C1=NOC(CN3CCN(CC(C)=Cc4ccccc4)CC3)C1CO2 (single isomer, unassigned) [Compound 344] | 8.00 | 8.45 | 8.68
3 | 17.4 | 8.51 | 0.162 | – | COCCOCOc1cc2c(cc1OC)C1=NOC(CN3CCN(C/C(C)=C/c4ccccc4)CC3)C1CO2 (single isomer, unassigned) [Compound 342] | – | – | –
4 | – | 4.57 | 2.09 | 1.58 | COc1cc2c(cc1OC)C1=NOC(CN3CCN(CC(C)=Cc4cccc(F)c4)CC3)C1CO2 (centres unmarked) [Compound 195] | – | – | –
5 | 871 | 214 | 64.6 | – | COc1cc2c(cc1OC)C1=NOC(CN3CCN(CCC(O)c4ccccc4)CC3)C1CO2 (centres unmarked) [Compound 310] | – | – | –
6 | 37.2 | 2.34 | 1.23 | – | COC(=O)Oc1cc2c(cc1OC)C1=NOC(CN3CCN(C/C(C)=C/c4ccccc4)CC3)C1CO2 (single isomer, unassigned) [Compound 343] | – | – | –
7 | 44.7 | 7.94 | 3.47 | – | COc1cc2c(cc1OC)C1=NOC(CN3CCN(C/C=C(\C)c4ccccc4F)CC3)C1CO2 (single isomer, unassigned) [Compound 359] | – | – | –
8 | – | – | – | – | COc1cc2c(cc1SC)OCC1C2=NOC1CN1CCN(CC(C)=Cc2ccccc2)CC1.O=C(O)C(F)(F)F (racemic) [Compound 350] | 7.69 | 8.39 | 8.68
9 | 389 | 50.1 | 58.9 | – | COc1cc2c(cc1OC)C1=NOC(CN3CCN(CCC(=O)c4ccccc4)CC3)C1CO2 (centres unmarked) [Compound 309] | – | – | –
10 | 13.5 | 5.13 | 7.08 | – | COc1cc2c(cc1OC(C)=O)OCC1C2=NOC1CN1CCN(Cc2ccc3ccccc3c2)CC1 (centres unmarked) [Compound 355] | – | – | –
11 | – | – | – | – | COc1cc2c(cc1OS(C)(=O)=O)OCC1C2=NOC1CN1CCN(CC(C)=Cc2ccccc2)CC1 (single isomer, unassigned) [Compound 346] | 8.37 | 8.65 | 8.91
12 | 58.9 | 4.47 | 0.603 | – | COc1cc2c(cc1OCCOC(C)=O)C1=NOC(CN3CCN(CC(C)=Cc4ccccc4)CC3)C1CO2 (centres unmarked) [Compound 332] | – | – | –
13 | – | 15.8 | 12.6 | 5.01 | COc1ccccc1C=CCN1CCN(CC2ON=C3c4cc(OC)c(OC)cc4OCC32)CC1 (centres unmarked) [Compound 41] | – | – | –
14 | 15.1 | 6.17 | 9.55 | – | COc1cc2c(cc1OC)C1=NOC(CN3CCN(C/C=C(\C)c4ccsc4)CC3)C1CO2 (single isomer, unassigned) [Compound 323] | – | – | –
15 | – | 13.5 | 74.1 | 52.5 | COc1cc2c(cc1OC)C1=NOC(CN3CCN(CC(C)=Cc4cccc5ccccc45)CC3)C1CO2 (centres unmarked) [Compound 157] | – | – | –
16 | – | 2.69 | 2.29 | – | COc1cc2c(cc1OC(C)=O)OCC1C2=NOC1CN1CCN(C/C(C)=C/c2cccc(F)c2)CC1 (single isomer, unassigned) [Compound 334] | – | – | –
17 | – | 14.5 | 8.13 | 3.63 | COc1cc2c(cc1OC)C1=NOC(CN3CCN(CC(C)=Cc4ccc(F)cc4)CC3)C1CO2 (centres unmarked) [Compound 196] | – | – | –
18 | – | 4.37 | 4.57 | 3.24 | COc1ccccc1C=C(C)CN1CCN(CC2ON=C3c4cc(OC)c(OC)cc4OCC32)CC1 (centres unmarked) [Compound 201] | – | – | –
19 | 302 | 195 | – | – | COc1cc2c(cc1OC)C1=NOC(CN3CCN(Cc4cccc(Br)c4)CC3)C1CO2 (centres unmarked) [Compound 90] | – | – | –
20 | – | 1.2 | 1.66 | 1 | COc1cc2c(cc1OC)C1=NOC(CN3CCN(CC(C)=Cc4cc(F)ccc4F)CC3)C1CO2 (centres unmarked) [Compound 199] | – | – | –
21 | 2.19 | 3.63 | 1.23 | – | COc1cc2c(cc1OCCN(C)C)OCC1C2=NOC1CN1CCN(C/C(C)=C/c2ccccc2)CC1 (single isomer, unassigned) [Compound 341] | – | – | –
22 | – | 20.9 | – | – | COc1cc2c(cc1OCC1CC1)OCC1C2=NOC1CN1CCN(C/C(C)=C/c2ccc(F)cc2)CC1 (single isomer, unassigned) [Compound 337] | – | – | –
23 | 11.5 | 12.9 | 3.31 | – | COc1cc2c(cc1OC)C1=NOC(CN3CCN(C/C=C(\C)c4cccc(Cl)c4)CC3)C1CO2 (single isomer, unassigned) [Compound 366] | – | – | –
24 | 17.8 | 1.2 | 1.32 | – | COc1ccc2c(c1)C1=NOC(CN3CCN(CC(C)=Cc4ccccc4)CC3)C1CO2 (centres unmarked) [Compound 348] | – | – | –
25 | 1000 | 851 | 1000 | – | COc1cc2c(cc1OC)C1=NOC(CN3CCN(Cc4cccn4C)CC3)C1CO2 (centres unmarked) [Compound 291] | – | – | –
26 | 37.2 | 1.48 | 3.24 | – | COc1cc2c(cc1OC(C)=O)OCC1C2=NOC1CN1CCN(C/C=C(\C)c2ccccc2)CC1 (single isomer, unassigned) [Compound 358] | – | – | –
